Experimental data from patent US8557816B2, “Aurora kinase modulators and method of use” (Amgen Inc., priority 2007, dated 2013).

Assays:
AuroraB = target: T1, AuroraB (Homo sapiens, UniProt Q96GD4); assay: AuroraB Homogeneous Time Resolved Fluorescent (HTRF) kinase assay; assay type: biochemical; conditions: average; read-out: AurB_IC50_IP (uM Avg)
T1 construct: 20 μL of AuroraB FL H is for a final volume of 41 μL; His
Protocol: AuroraB-Homogeneous Time Resolved Fluorescent (HTRF) Kinase Assay:
The AuroraB HTRF assay begins with AuroraB in the presence of ATP phosphorylating the biotinylated peptide Histone H3. The reaction incubates for about 90 min. the reaction is quenched by addition of detection reagents, which stop the reaction by diluting out the enzyme and chelating the metals due to the presence of EDTA. After addition, the assay is incubated for about 60 min to allow detection reagents to equilibrate.
The AuroraB HTRF assay comprises 1 μL of compound in 100% DMSO, 20 μL of ATP and biotinylated Histone H3, and 20 μL of AuroraB FL H is for a final volume of 41 μL. The final concentration of Histone H3 is 0.1 μM. […] Buffer conditions are as follows: 50 mM HEPES pH 7.5, 5 mM NaCl, 0.5 mM MgCl, 0.5 mM MnCl, 2 mM DTT, 0.05% BSA.
(§1) The assay is quenched and stopped with 160 μL of detection reagent. Detection reagents are as follows: Buffer made of 50 mM Tris, pH 7.5, 100 mM NaCl, 3 mM EDTA, 0.05% BSA, 0.1% Tween20. Added to this buffer prior to reading is Steptavidin allophycocyanin (SA-APC) at a final conc in the assay of 0.001 mg/mL, and europilated anti-phosphoHistoneH3 Ab (Eu-anti-HisH3) at a final conc of 0.064 nM.
The assay plate is read in either a Discovery or a RubyStar. The eu-anti-HisH3 is excited at 320 nm and emits at 615 nm to excite the SA-APC which in turn emits at 655 nm.

AuroraA-TPX2 = target: T2, AuroraA-TPX2 (Homo sapiens, UniProt O14965); assay: AuroraA-TPX2 Homogeneous Time Resolved Fluorescent (HTRF) kinase assay; assay type: biochemical; conditions: average; read-out: AurA_IC50_IP (uM Avg)
T2 construct: 20 μL of AuroraA-TPX2 KD GST for a final volume of about 41 μL; GST
T2 sequence (O14965 133-383 limits assumed): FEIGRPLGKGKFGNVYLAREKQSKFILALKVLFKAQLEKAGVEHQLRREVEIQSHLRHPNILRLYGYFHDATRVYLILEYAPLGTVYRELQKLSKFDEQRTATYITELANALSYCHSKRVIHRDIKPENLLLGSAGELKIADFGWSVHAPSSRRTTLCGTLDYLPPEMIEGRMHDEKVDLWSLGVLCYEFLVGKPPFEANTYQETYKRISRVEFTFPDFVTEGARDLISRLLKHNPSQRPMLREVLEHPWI
T2 sequence (Q9ULW0 1-43 partner limits assumed): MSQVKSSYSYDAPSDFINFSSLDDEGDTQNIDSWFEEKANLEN
Protocol: AuroraA-TPX2-Homogeneous Time Resolved Fluorescent (HTRF) Kinase Assay:
The Aurora-A HTRF assay begins with Aurora-A in the presence of ATP phosphorylating the biotinylated peptide PLK. The reaction incubates for about 120 min. Detection reagents are added to quench the reaction. These agents stop the reaction by diluting out the enzyme and chelating the metals due to the presence of EDTA. After addition, the assay is incubated overnight to allow the detection reagents to equilibrate.
The AuroraA HTRF assay comprises 1 μL of compound in 100% DMSO, 20 μL of ATP and biotinylated PLK, and 20 μL of AuroraA-TPX2 KD GST for a final volume of about 41 μL. The final concentration of PLK is about 1 μM. […] Buffer conditions are as follows: 60 mM HEPES pH 7.5, 25 mM NaCl, 10 mM MgCl, 2 mM DTT, 0.05% BSA.
as §1, with “0.0005” for “0.001”, “anti-phosphoPLK” for “anti-phosphoHistoneH3”, “(Eu-anti-PLK)” for “(Eu-anti-HisH3)”, “0.02” for “0.064”
The assay plate is read in either a Discovery or a RubyStar. The eu-anti-PLK is excited at 320 nm and emits at 615 nm to excite the SA-APC which in turn emits at 655 nm.

T1 sequence (Q96GD4 whole entry): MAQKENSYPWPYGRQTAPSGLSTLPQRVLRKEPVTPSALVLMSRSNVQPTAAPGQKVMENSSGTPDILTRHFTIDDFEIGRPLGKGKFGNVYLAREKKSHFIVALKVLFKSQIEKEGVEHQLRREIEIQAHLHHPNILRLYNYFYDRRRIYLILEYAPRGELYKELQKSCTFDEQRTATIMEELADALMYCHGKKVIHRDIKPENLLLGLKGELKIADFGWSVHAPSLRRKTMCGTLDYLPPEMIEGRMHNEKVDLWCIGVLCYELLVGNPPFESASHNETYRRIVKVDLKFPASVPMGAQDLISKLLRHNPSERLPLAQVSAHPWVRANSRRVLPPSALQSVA

| IC50 (AuroraB) [µM] | IC50 (AuroraA-TPX2) [µM] | SMILES |
| --- | --- | --- |
| 0.645 | 0.532 | COc1cnc2c([S+]([O-])c3ccc(Nc4nnc(-c5ccc(F)cc5)c5ccccc45)cc3)ccnc2c1 (stereo not drawn) [Example 410, 4-(4-fluorophenyl)-N-(4-(7-methoxy-1,5-naphthyridin-4-ylsulfinyl)phenyl)phthalazin-1-amine] |
| 0.001 | 0.021 | CCc1cc(-c2ccccc2)nnc1Nc1ccc(Oc2ccnc3cc(C(N)=O)ccc23)cc1 [compound 49, 4-((4-((4-ethyl-6-phenyl-3-pyridazinyl)amino)phenyl)oxy)-7-quinolinecarboxamide] |
| 0.023 | 0.86 | COc1cnc2c(N(C)c3ccc(Nc4nnc(-c5ccccc5)c5ccccc45)cc3)ccnc2c1 [compound 51, N-methyl-N-(7-(methyloxy)-1,5-naphthyridin-4-yl)-N′-(4-phenyl-1-phthalazinyl)-1,4-benzenediamine] |
| 0.032 | 0.014 | COc1cc2nccc(Oc3ccc(Nc4nnc(-c5ccc(C)c(C)c5)c5ccccc45)cc3)c2cc1OC [compound 74, N-(4-((6,7-bis(methyloxy)-4-quinolinyl)oxy)phenyl)-4-(3,4-dimethylphenyl)-1-phthalazinamine] |
| 0.042 | 0.023 | COc1cc2nccc(Oc3ccc(Nc4nnc(N5CCCCC5)c5ccccc45)cc3)c2cc1OC [compound 75, N-(4-((6,7-bis(methyloxy)-4-quinolinyl)oxy)phenyl)-4-(1-piperidinyl)-1-phthalazinamine] |
| 0.106 | 0.034 | COc1cc2nccc(Oc3ccc(Nc4nnc(-c5cccs5)c5ccccc45)cc3F)c2cc1OC [compound 76, N-(4-((6,7-bis(methyloxy)-4-quinolinyl)oxy)-3-fluorophenyl)-4-(2-thienyl)-1-phthalazinamine] |
| 0.079 | 0.701 | COc1cc2nccc(Oc3ccc(Nc4nnc(-n5nc(C)cc5C)c5ccccc45)cc3F)c2cc1OC [compound 77, N-(4-((6,7-bis(methyloxy)-4-quinolinyl)oxy)-3-fluorophenyl)-4-(3,5-dimethyl-1H-pyrazol-1-yl)-1-phthalazinamine] |
| 0.004 | 0.022 | NC(=O)c1cc2nccc(Oc3ccc(Nc4nnc(-c5ccccc5)c5ccccc45)cc3F)c2s1 [compound 78, 7-((2-fluoro-4-((4-phenyl-1-phthalazinyl)amino)phenyl)oxy)thieno-[3,2-b]pyridine-2-carboxamide] |
| 0.008 | 0.028 | COc1cnc2c(Oc3ccc(Nc4nnc(-c5ccccc5)c5ccccc45)cc3)ccnc2c1 [compound 79, N-(4-((7-(methyloxy)-1,5-naphthyridin-4-yl)oxy)phenyl)-4-phenyl-1-phthalazinamine] |
| 0.041 | 0.414 | COc1cnc2c(Oc3ccc(Nc4nnc(-c5cc(F)ccc5OC)c5ccccc45)cc3)ccnc2c1 [compound 80, 4-(5-fluoro-2-(methyloxy)phenyl)-N-(4-((7-(methyloxy)-1,5-naphthyridin-4-yl)oxy)phenyl)-1-phthalazinamine] |
| 0.006 | 0.012 | COc1cnc2c(Oc3ccc(Nc4nnc(-c5ccc(C)cc5)c5ccccc45)cc3)ccnc2c1 [compound 81, N-(4-((7-(methyloxy)-1,5-naphthyridin-4-yl)oxy)phenyl)-4-(4-methylphenyl)-1-phthalazinamine] |
| 0.006 | 0.013 | COc1cnc2c(Oc3ccc(Nc4nnc(-c5nc(C)cs5)c5ccccc45)cc3)ccnc2c1 [compound 82, N-(4-((7-(methyloxy)-1,5-naphthyridin-4-yl)oxy)phenyl)-4-(4-methyl-1,3-thiazol-2-yl)-1-phthalazinamine] |
| 0.01 | 0.08 | CCc1cc(-c2ccccc2)nnc1Nc1ccc(Oc2ccnc3cc(OC)cnc23)nc1 [compound 83, 4-ethyl-N-(6-((7-(methyloxy)-1,5-naphthyridin-4-yl)oxy)-3-pyridinyl)-6-phenyl-3-pyridazinamine] |
| 0.002 | 0.16 | COc1cnc2c(Oc3cnc(Nc4nnc(-c5ccccc5)c5ccccc45)nc3)ccnc2c1 [compound 84, N-(5-((7-(methyloxy)-1,5-naphthyridin-4-yl)oxy)-2-pyrimidinyl)-4-phenyl-1-phthalazinamine] |
| 0.004 | 0.066 | COc1cnc2c(Oc3ccc(Nc4nnc(N5CCN(C)CC5)c5ccccc45)cc3)ccnc2c1 [compound 85, N-(4-((7-(methyloxy)-1,5-naphthyridin-4-yl)oxy)phenyl)-4-(4-methyl-1-piperazinyl)-1-phthalazinamine] |
| 0.014 | 0.031 | Cc1csc(-c2nnc(Nc3ccc(Oc4ccnc5cc(C#N)ccc45)cc3)c3ccccc23)n1 [compound 86, 4-((4-((4-(4-methyl-1,3-thiazol-2-yl)-1-phthalazinyl)amino)phenyl)oxy)-7-quinolinecarbonitrile] |
| 0.013 | 0.142 | COc1ccc(F)cc1-c1nnc(Nc2ccc(Oc3ccnc4cc(C#N)ccc34)cc2)c2ccccc12 [compound 87, 4-((4-((4-(5-fluoro-2-(methyloxy)phenyl)-1-phthalazinyl)amino)phenyl)oxy)-7-quinolinecarbonitrile] |
| 0.003 | 0.006 | Cc1ccc(-c2nnc(Nc3ccc(Oc4ccnc5cc(C#N)ccc45)cc3)c3ccccc23)cc1 [compound 88, 4-((4-((4-(4-methylphenyl)-1-phthalazinyl)amino)phenyl)oxy)-7-quinolinecarbonitrile] |
| 0.007 | 0.012 | COc1cnc2c(Oc3ccc(Nc4nnc(-c5ccccc5)c5ccccc45)cc3F)ccnc2c1 [compound 89, N-(3-fluoro-4-((7-(methyloxy)-1,5-naphthyridin-4-yl)oxy)phenyl)-4-phenyl-1-phthalazinamine] |
| 0.025 | 0.019 | COc1cc2nccc(Oc3ccc(Nc4nnc(-c5ccccc5)c5ccccc45)cc3)c2cc1OC [compound 90, N-(4-((6,7-bis(methyloxy)-4-quinolinyl)oxy)phenyl)-4-phenyl-1-phthalazinamine] |
| 0.012 | 0.054 | COc1ccc2c(Oc3ccc(Nc4nnc(-c5ccccc5)c5ccccc45)cc3)ccnc2c1 [compound 91, N-(4-((7-(methyloxy)-4-quinolinyl)oxy)phenyl)-4-phenyl-1-phthalazinamine] |
| 0.003 | 0.007 | COc1cnc2c(Oc3ccc(Nc4nnc(N5CCN6CCCC6C5)c5ccccc45)cc3)ccnc2c1 (stereo not drawn) [compound 92, 4-(hexahydropyrrolo[1,2-a]pyrazin-2(1H)-yl)-N-(4-((7-(methyloxy)-1,5-naphthyridin-4-yl)oxy)phenyl)-1-phthalazinamine] |
| 0.001 | 0.008 | N#Cc1ccc2c(Oc3ccc(Nc4nnc(-c5cccc(O)c5)c5ccccc45)cc3)ccnc2c1 [compound 93, 4-((4-((4-(3-hydroxyphenyl)-1-phthalazinyl)amino)phenyl)oxy)-7-quinolinecarbonitrile] |
| 0.001 | 0.027 | CN1CCN(c2nnc(Nc3ccc(Oc4ccnc5cc(C#N)ccc45)cc3)c3ccccc23)CC1 [compound 94, 4-((4-((4-(4-methyl-1-piperazinyl)-1-phthalazinyl)amino)phenyl)oxy)-7-quinolinecarbonitrile] |
